Reference: patent publication EP4603105A1, “PHARMACEUTICAL COMPOSITION CONTAINING CYCLIC COMPOUND HAVING SELECTIVE KRAS INHIBITORY EFFECT AGAINST HRAS AND NRAS” (CHUGAI SEIYAKU KABUSHIKI KAISHA, priority 2022, dated 2024)
*1 amine or outer side, *2 acyl side, *3 side chain or, on linkers, in order; H or OH if unused. Where a SMILES comes first, the peptide text is derived from it. Bridges are numbered along the chain shown (N, C = ends). [ ]: non-standard residue; d: D form. The star is where a group is joined. hPhe(3-Cl-4-CF3) = N[C@@H](CCc1ccc(C(F)(F)F)c(Cl)c1)C(=O)O; NPrPhe(4-CF3) = CCCN[C@@H](Cc1ccc(C(F)(F)F)cc1)C(=O)O; X46 = C=CCCN([C@@H](Cc1ccc(C)cc1)C(=O)[*:2])[*:1]; NEtAsp = CCN([C@@H](CC(=O)[*:3])C(=O)[*:2])[*:1]; X1 = CCCCN([C@@H](Cc1ccc(C)cc1)C(=O)[*:2])[*:1]; NMeGly(cPent) = CN[C@H](C(=O)O)C1CCCC1; Pro(4,4-Me2) = CC1(C)CN[C@H](C(=O)O)C1; Hyp = O=C(O)[C@@H]1C[C@@H](O)CN1; NMeD = CN[C@@H](CC(=O)O)C(=O)O; NMeL = CN[C@@H](CC(C)C)C(=O)O; Morpholide = C1CN(*)CCO1; NMeA = CN[C@@H](C)C(=O)O; Ac5c = NC1(C(=O)O)CCCC1; Aze = O=C(O)[C@@H]1CCN1; Ac4c = NC1(C(=O)O)CCC1; NEtG = CCNCC(=O)O; Sar = CNCC(=O)O

Tests used:
[1] = target: GDP-bound NRAS wild-type protein (Homo sapiens, UniProt P01111); assay: Binding to NRAS by surface plasmon resonance (SPR), KD and KD ratio to KRAS
How it was run: (§1)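 Each cycle, GDP-bound biotin-Avi RAS was captured (~100–300 RU), compound concentrations were injected low to high for 75 s each at 100 µL/min, then the chip was regenerated. Buffer: HBS pH 7.4, 10 mM MgCl2, 10 µM GDP, 1 mM DTT, 4% DMSO; 30°C. KD from a 1:1 binding model.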

[2] = target: HRAS wild-type protein (Homo sapiens, UniProt P01112); assay: Binding to HRAS by surface plasmon resonance (SPR), KD and KD ratio to KRAS
How it was run: as §1

[3] = system: human lung cancer strain NCI-H441; assay type: cell-based
How it was run: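 Signal came from […] measured per well once the reagent was added. Beforehand, cells were cultured at 37°C and 5% carbon dioxide on a compound series serially diluted in dimethyl sulfoxide.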

[4] = ratio of KD for GDP-bound NRAS wild-type protein to KD for KRAS
[5] = ratio of KD for HRAS wild-type protein to KD for KRAS
[6] = ratio of the KD value with respect to GDP-bound NRAS wild-type protein to the KD value with respect to KRAS
[7] = ratio of the KD value with respect to HRAS wild-type protein to the KD value with respect to KRAS
[8] = ratio of KD value for GDP-bound NRAS wild-type protein to KD value for KRAS (SPR)
[9] = ratio of KD value for HRAS wild-type protein to KD value for KRAS (SPR)

HRAS wild-type protein, sequence (P01112 whole entry): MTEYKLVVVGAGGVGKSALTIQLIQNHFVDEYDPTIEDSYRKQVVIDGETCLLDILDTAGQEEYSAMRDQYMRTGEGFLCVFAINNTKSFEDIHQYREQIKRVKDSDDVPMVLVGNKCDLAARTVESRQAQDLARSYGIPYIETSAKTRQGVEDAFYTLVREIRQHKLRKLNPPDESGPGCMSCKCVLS
GDP-bound NRAS wild-type protein, sequence (P01111 whole entry): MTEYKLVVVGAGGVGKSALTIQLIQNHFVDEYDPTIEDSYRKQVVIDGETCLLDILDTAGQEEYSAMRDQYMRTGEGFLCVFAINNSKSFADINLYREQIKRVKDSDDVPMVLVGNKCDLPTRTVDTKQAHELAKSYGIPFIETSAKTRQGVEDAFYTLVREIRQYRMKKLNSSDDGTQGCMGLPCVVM

SMILES	NRAS /KRAS [1, 4]	HRAS /KRAS [2, 5]	IC50 [3] [nM]	NRAS /KRAS [1, 6]	HRAS /KRAS [2, 7]	other results
CCCCN1C(=O)CN(C)C(=O)CN(C)C(=O)[C@H]([C@@H](C)CC)NC(=O)[C@H](CC(C)C)N(C)C(=O)C[C@@H](C(=O)N2CCOCC2)N(C)C(=O)[C@H](C2CCCC2)N(C)C(=O)C2(CCCC2)NC(=O)[C@@H]2CCCN2C(=O)[C@H](CCc2ccc(C(F)(F)F)c(Cl)c2)NC(=O)CN(C)C(=O)[C@@H]1Cc1ccc(C)cc1 [PP0062] ([NMeL]I[Sar][Sar][X1][Sar][hPhe(3-Cl-4-CF3)]P[Ac5c][NMeGly(cPent)][NMeD]-Morpholide; lactam N-11)	C (A compound having a KD ratio of 0.1 or more and less than 3 is denoted as C)	C (A compound having a KD ratio of 0.1 or more and less than 3 is denoted as C)	3.8	–	–	–
CCO[C@@H]1C[C@H]2C(=O)NC3(CCC3)C(=O)N(C)[C@@H](C3CCCC3)C(=O)N(C)[C@H](C(=O)N(C)CCOC)CC(=O)N(C)[C@@H](C)C(=O)N[C@@H]([C@@H](C)CC)C(=O)N(C)CC(=O)N(C)[C@H]3C/C=C\CCN(C3=O)[C@@H](Cc3ccc(C(F)(F)F)cc3)C(=O)N(C)CC(=O)N[C@@H](CCc3cc(F)c(C(F)(F)F)c(F)c3)C(=O)N2C1 [PP1319]	–	–	57.5	–	–	NRAS /KRAS ([1]; ratio of KD with respect to GDP-bound NRAS wild-type protein to KD with respect to KRAS): A (a compound having 10 or more and less than 20 is denoted as A); HRAS /KRAS ([2]; ratio of KD with respect to HRAS wild-type protein to KD with respect to KRAS): B (a compound having 3 or more and less than 10 is denoted as B)
CCCN1C(=O)[C@@H]2CCN2C(=O)[C@H](C)N(C)C(=O)[C@H]([C@@H](C)CC)NC(=O)[C@H](CC(C)C)N(C)C(=O)C[C@@H](C(=O)N(C)C)N(CC)C(=O)[C@H](C2CCCC2)N(C)C(=O)C2(CCC2)NC(=O)[C@@H]2CCCN2C(=O)[C@H](CCc2ccc(C(F)(F)F)c(Cl)c2)NC(=O)CN(C)C(=O)[C@@H]1Cc1ccc(C(F)(F)F)cc1 [PP1957] ([NMeL]I[NMeA][Aze][NPrPhe(4-CF3)][Sar][hPhe(3-Cl-4-CF3)]P[Ac4c][NMeGly(cPent)][NEtAsp]-NMe2; lactam N-11)	–	–	8.6	C (A compound having a KD ratio of 0.1 or more and less than 3 is denoted as C)	B (a compound having 3 or more and less than 10 is denoted as B)	–
CCO[C@@H]1C[C@H]2C(=O)NC3(CCC3)C(=O)N(C)[C@@H](CC(C)C)C(=O)N(C)[C@H](C(=O)N(C)C)CC(=O)N(C)[C@@H](CC)C(=O)N[C@@H]([C@@H](C)CC)C(=O)N(C)CC(=O)N(C)[C@H]3C/C=C\CCN(C3=O)[C@@H](Cc3ccc(C(F)(F)F)cc3)C(=O)N(C)CC(=O)N[C@@H](CCc3cc(F)c(C(F)(F)F)c(F)c3)C(=O)N2C1 [PP1089]	AA (a compound having 20 or more is denoted as AA)	A (a compound having 10 or more and less than 20 is denoted as A)	57.3	–	–	–
CCO[C@@H]1C[C@H]2C(=O)N(C)C3(CCC3)C(=O)N(C)[C@@H](C3CCCC3)C(=O)N(C)[C@H](C(=O)N(C)C)CC(=O)N(C)[C@@H](C3CC3)C(=O)N[C@@H]([C@@H](C)CC)C(=O)N(C)CC(=O)N(C)[C@H]3C/C=C\CCN(C3=O)[C@@H](Cc3ccc(C)cc3)C(=O)N(C)CC(=O)N[C@@H](CCc3cc(F)c(C(F)(F)F)c(F)c3)C(=O)N2C1 [PP1783]	–	–	3.5	–	–	NRAS /KRAS [1, 8]: A (a compound having 10 or more and less than 20 is denoted as A); HRAS /KRAS [2, 9]: B (a compound having 3 or more and less than 10 is denoted as B)
CCO[C@@H]1C[C@H]2C(=O)NC3(CC(C)(C)C3)C(=O)N(C)[C@@H](C3CCCC3)C(=O)N(C)[C@H](C(=O)N(C)C)CC(=O)N(C)[C@@H](CC3CC3)C(=O)N[C@@H]([C@@H](C)CC)C(=O)N(C)CC(=O)N(C)[C@H]3C/C=C\CCN(C3=O)[C@@H](Cc3ccc(C(F)(F)F)cc3)C(=O)N(C)CC(=O)N[C@@H](CCc3cc(F)c(C(F)(F)F)c(F)c3)C(=O)N2C1 [PP1568]	–	–	2.2	–	–	NRAS /KRAS [1, 8]: A (a compound having 10 or more and less than 20 is denoted as A); HRAS /KRAS [2, 9]: A (a compound having 10 or more and less than 20 is denoted as A)
CCCN1C(=O)[C@@H]2CCN2C(=O)CN(C)C(=O)[C@H]([C@@H](C)CC)NC(=O)[C@H](CC(C)C)N(C)C(=O)C[C@@H](C(=O)N(C)C)NC(=O)[C@H](C2CCCC2)N(C)C(=O)C2(CCCC2)NC(=O)[C@@H]2C[C@@H](OCC)CN2C(=O)[C@H](CCc2ccc(C(F)(F)F)c(Cl)c2)NC(=O)CN(C)C(=O)[C@@H]1Cc1ccc(C(F)(F)F)cc1 [PP0389] ([NMeL]I[Sar][Aze][NPrPhe(4-CF3)][Sar][hPhe(3-Cl-4-CF3)][Hyp](Et)[Ac5c][NMeGly(cPent)]D-NMe2; lactam N-11)	–	–	3	C (A compound having a KD ratio of 0.1 or more and less than 3 is denoted as C)	B (a compound having 3 or more and less than 10 is denoted as B)	–
CC[C@H](C)[C@@H]1NC(=O)[C@H](CC2CCC2)N(C)C(=O)C[C@@H](C(=O)N(C)C)N(C)C(=O)[C@H](C2CCCC2)N(C)C(=O)C2(CC(C)(C)C2)NC(=O)[C@@H]2CCCN2C(=O)[C@H](CCc2cc(F)c(C(F)(F)F)c(F)c2)NC(=O)CN(C)C(=O)[C@H](Cc2ccc(C(F)(F)F)cc2)N2CC/C=C\C[C@@H](C2=O)N(C)C(=O)CN(C)C1=O [PP1728]	–	–	18.3	–	–	NRAS /KRAS [1, 8]: A (a compound having 10 or more and less than 20 is denoted as A); HRAS /KRAS [2, 9]: A (a compound having 10 or more and less than 20 is denoted as A)
C=CCCN1C(=O)[C@@H]2CCN2C(=O)[C@H](C)N(C)C(=O)[C@H]([C@@H](C)CC)NC(=O)[C@H](CC(C)C)N(C)C(=O)C[C@@H](C(=O)N2CCOCC2)N(C)C(=O)[C@H](C2CCCC2)N(C)C(=O)C2(CCCC2)NC(=O)[C@@H]2CCCN2C(=O)[C@H](CCc2ccc(C(F)(F)F)c(Cl)c2)NC(=O)CN(C)C(=O)[C@@H]1Cc1ccc(C)cc1 [PP0089] ([NMeL]I[NMeA][Aze][X46][Sar][hPhe(3-Cl-4-CF3)]P[Ac5c][NMeGly(cPent)][NMeD]-Morpholide; lactam N-11)	C (A compound having a KD ratio of 0.1 or more and less than 3 is denoted as C)	B (a compound having 3 or more and less than 10 is denoted as B)	5.5	–	–	–
CCC[C@H]1C(=O)N[C@@H]([C@@H](C)CC)C(=O)N(C)CC(=O)N(C)[C@H]2C/C=C\CCN(C2=O)[C@@H](Cc2ccc(C(F)(F)F)cc2)C(=O)N(C)CC(=O)N[C@@H](CCc2ccc(Cl)c(Cl)c2)C(=O)N2CCOC[C@H]2C(=O)NC2(CC(C)(C)C2)C(=O)N(C)[C@@H](C(CC)CC)C(=O)N(C)[C@H](C(=O)N(C)C)CC(=O)N1C [PP2920]	AA (a compound having 20 or more is denoted as AA)	A (a compound having 10 or more and less than 20 is denoted as A)	118	–	–	–
CCO[C@@H]1C[C@H]2C(=O)NC3(CCC3)C(=O)N(C)[C@@H](C3CCCC3)C(=O)N(C)[C@H](C(=O)N(C)C)CC(=O)N(C)[C@H]3CCCCCc4ccc(cc4)C[C@@H](C(=O)N(C)CC(=O)N[C@@H](CCc4cc(F)c(C(F)(F)F)c(F)c4)C(=O)N2C1)N1CC/C=C\C[C@@H](C1=O)N(C)C(=O)CN(C)C(=O)[C@H]([C@@H](C)CC)NC3=O [PP2261]	–	–	16.6	A (a compound having 10 or more and less than 20 is denoted as A)	A (a compound having 10 or more and less than 20 is denoted as A)	–
CCCN1C(=O)CN(C)C(=O)CN(CC)C(=O)[C@H]([C@@H](C)CC)NC(=O)[C@H](CC(C)C)N(C)C(=O)C[C@@H](C(=O)N2CCOCC2)N(C)C(=O)[C@H](C2CCCC2)N(C)C(=O)C2(CCCC2)NC(=O)[C@@H]2CC(C)(C)CN2C(=O)[C@H](CCc2ccc(C(F)(F)F)c(Cl)c2)NC(=O)CN(C)C(=O)[C@@H]1Cc1ccc(C(F)(F)F)cc1 [PP0450] ([NMeL]I[NEtG][Sar][NPrPhe(4-CF3)][Sar][hPhe(3-Cl-4-CF3)][Pro(4,4-Me2)][Ac5c][NMeGly(cPent)][NMeD]-Morpholide; lactam N-11)	–	–	8.4	B (a compound having 3 or more and less than 10 is denoted as B)	C (A compound having a KD ratio of 0.1 or more and less than 3 is denoted as C)	–
CCO[C@@H]1C[C@H]2C(=O)NC3(CC(C)(C)C3)C(=O)N(C)[C@@H](C3CCCC3)C(=O)N(C)[C@H](C(=O)N(C)CC)CC(=O)N(C)[C@H]3CCCCCc4ccc(cc4)C[C@@H](C(=O)N(C)CC(=O)N[C@@H](CCc4ccc(C(F)(F)F)c(OC)c4)C(=O)N2C1)N1CC/C=C\C[C@@H](C1=O)N(C)C(=O)CN(C)C(=O)[C@H]([C@@H](C)CC)NC3=O [PP2259]	–	–	6.5	A (a compound having 10 or more and less than 20 is denoted as A)	B (a compound having 3 or more and less than 10 is denoted as B)	–
CCCN1C(=O)CN(C)C(=O)CN(CC)C(=O)[C@H]([C@@H](C)CC)NC(=O)[C@H](CC(C)C)N(C)C(=O)C[C@@H](C(=O)N2CCOCC2)N(C)C(=O)[C@H](C2CCCC2)N(C)C(=O)C2(CCCC2)NC(=O)[C@@H]2C[C@@H](OC)CN2C(=O)[C@H](CCc2ccc(C(F)(F)F)c(Cl)c2)NC(=O)CN(C)C(=O)[C@@H]1Cc1ccc(C(F)(F)F)cc1 [PP0296] ([NMeL]I[NEtG][Sar][NPrPhe(4-CF3)][Sar][hPhe(3-Cl-4-CF3)][Hyp](Me)[Ac5c][NMeGly(cPent)][NMeD]-Morpholide; lactam N-11)	B (a compound having 3 or more and less than 10 is denoted as B)	C (A compound having a KD ratio of 0.1 or more and less than 3 is denoted as C)	4.3	–	–	–
